Reference: patent US20240368177A1, “5-AMINO-6,8-DIHYDRO-1H-FURO[3,4-d]PYRROLO[3,2-b]PYRIDINE-2-CARBOXAMIDE DERIVATIVES AS MTA-COOPERATIVE INHIBITORS OF PRMT5” (BeiGene Switzerland GmbH, priority 2023, published 2024)

Assays:
HCT116-MTAP-KO = assay: Cell killing in HCT116 isogenic pair (Cell Titer-Glo viability), MTAP knock-out cells; type: cell-based, human; conditions: Homo sapiens, HCT-116, 144 h, 6 days incubation, 0-10 μM, * = more than 50% viability inhibition at tested concentration without a full curve
In short: (§1)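 Viability was read by CellTiter-Glo luminescence after 6 days of compound treatment (0–10 μM final, 37° C, 5% CO2), and IC50 values were fitted. The isogenic HCT116 pair, MTAP-KO clone versus mock-KO MTAP-wildtype, was grown in RPMI 1640 plus 10% FBS and seeded the day before.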

HCT116-mock-RNA-KO = assay: Cell killing in HCT116 isogenic pair (Cell Titer-Glo viability), mock knock-out cells with MTAP wildtype genotype; type: cell-based, human; conditions: Homo sapiens, HCT-116, 144 h, 6 days incubation, 0-10 μM
In short: as §1

| Structure (SMILES) | IC50 (HCT116-MTAP-KO) | IC50 (HCT116-mock-RNA-KO) |
| --- | --- | --- |
| Nc1nc2cc(C(=O)N(Cc3c(F)cncc3F)[C@@H]3CCCc4cccnc43)[nH]c2c2c1COC2 [Example 10, (R)-5-amino-N-((3,5-difluoropyridin-4-yl)methyl)-N-(5,6,7,8-tetrahydroquinolin-8-yl)-6,8-dihydro-1H-furo[3,4-d]pyrrolo[3,2-b]pyridine-2-carboxamide] | 4.6 nM | 247 nM |
| COC[C@@H](C)N(Cc1ccc(Br)cn1)C(=O)c1cc2nc(N)c3c(c2[nH]1)COC3 [Example 45, (R)-5-amino-N-((5-bromopyridin-2-yl)methyl)-N-(1-methoxypropan-2-yl)-6,8-dihydro-1H-furo[3,4-d]pyrrolo[3,2-b]pyridine-2-carboxamide] | 7.2 nM | 856 nM |
| CN(C(=O)c1cc2nc(N)c3c(c2[nH]1)COC3)[C@@H]1COC2(CC2)c2cc(Br)ccc21 [Example 179, (S)-5-amino-N-(7′-bromospiro[cyclopropane-1,1′-isochroman]-4′-yl)-N-methyl-6,8-dihydro-1H-furo[3,4-d]pyrrolo[3,2-b]pyridine-2-carboxamide] | 24 nM | 4390 nM |
| CCN(C(=O)c1cc2nc(N)c3c(c2[nH]1)COC3)[C@H](C)c1ncc(C2CC2)cc1F [Example 120, (R)-5-amino-N-(1-(5-cyclopropyl-3-fluoropyridin-2-yl)ethyl)-N-ethyl-6,8-dihydro-1H-furo[3,4-d]pyrrolo[3,2-b]pyridine-2-carboxamide] | 5.6 nM | 992 nM |
| CCN(C(=O)c1cc2nc(N)c3c(c2[nH]1)COC3)[C@@H]1COCc2cc(C(F)(F)F)ccc21 [Example 54, (S)-5-amino-N-ethyl-N-(7-(trifluoromethyl)isochroman-4-yl)-6,8-dihydro-1H-furo[3,4-d]pyrrolo[3,2-b]pyridine-2-carboxamide] | 12 nM | 1360 nM |
| C[C@H](c1ccc(C2CC2)cn1)N(C(=O)c1cc2nc(N)c3c(c2[nH]1)COC3)C1CCC1 [Example 159, (R)-5-amino-N-cyclobutyl-N-(1-(5-cyclopropylpyridin-2-yl)ethyl)-6,8-dihydro-1H-furo[3,4-d]pyrrolo[3,2-b]pyridine-2-carboxamide] | 36 nM | 2580 nM |
| C[C@H](c1ncccn1)N(Cc1ccc(I)cn1)C(=O)c1cc2nc(N)c3c(c2[nH]1)COC3 [Example 51, (R)-5-amino-N-((5-iodopyridin-2-yl)methyl)-N-(1-(pyrimidin-2-yl)ethyl)-6,8-dihydro-1H-furo[3,4-d]pyrrolo[3,2-b]pyridine-2-carboxamide] | 7.8 nM | 558 nM |
| Nc1nc2cc(C(=O)N(Cc3ccc(-c4c(F)cncc4F)cn3)Cc3c(Cl)cccc3Cl)[nH]c2c2c1COC2 [Example 31, 5-amino-N-(2,6-dichlorobenzyl)-N-((3′,5′-difluoro-[3,4′-bipyridin]-6-yl)methyl)-6,8-dihydro-1H-furo[3,4-d]pyrrolo[3,2-b]pyridine-2-carboxamide] | 1.2 nM | 7.1 nM |
| C[C@H](c1cnccn1)N(Cc1ncc(Br)cc1F)C(=O)c1cc2nc(N)c3c(c2[nH]1)COC3 [Example 62, (R)-5-amino-N-((5-bromo-3-fluoropyridin-2-yl)methyl)-N-(1-(pyrazin-2-yl)ethyl)-6,8-dihydro-1H-furo[3,4-d]pyrrolo[3,2-b]pyridine-2-carboxamide] | 17 nM | 2080 nM |
| COCC(C)N(Cc1c(F)cccc1F)C(=O)c1cc2nc(N)c3c(c2[nH]1)COC3 (stereo not shown) [Example 8, 5-amino-N-(2,6-difluorobenzyl)-N-(1-methoxypropan-2-yl)-6,8-dihydro-1H-furo[3,4-d]pyrrolo[3,2-b]pyridine-2-carboxamide] | 34 nM | 2750 nM |
| CN(C(=O)c1cc2nc(N)c3c(c2[nH]1)COC3)[C@@H]1COCc2nc(C(F)(F)F)ccc21 [Example 85, (S)-5-amino-N-methyl-N-(2-(trifluoromethyl)-5,8-dihydro-6H-pyrano[3,4-b]pyridin-5-yl)-6,8-dihydro-1H-furo[3,4-d]pyrrolo[3,2-b]pyridine-2-carboxamide] | 113 nM | > 10000 nM |
| Nc1nc2cc(C(=O)N(Cc3ccc(-c4c(F)cccc4F)cc3F)[C@@H]3CCCc4cccnc43)[nH]c2c2c1COC2 [Example 6, (R)-5-amino-N-(5,6,7,8-tetrahydroquinolin-8-yl)-N-((2′,3,6′-trifluoro-[1,1′-biphenyl]-4-yl)methyl)-6,8-dihydro-1H-furo[3,4-d]pyrrolo[3,2-b]pyridine-2-carboxamide] | 11 nM | 40 nM |
| CCC(CC)N(Cc1ncc(N2CCOCC2)cc1F)C(=O)c1cc2nc(N)c3c(c2[nH]1)COC3 [Example 117, 5-amino-N-((3-fluoro-5-morpholinopyridin-2-yl)methyl)-N-(pentan-3-yl)-6,8-dihydro-1H-furo[3,4-d]pyrrolo[3,2-b]pyridine-2-carboxamide] | 6.5 nM | 609 nM |
| CCN(C(=O)c1cc2nc(N)c3c(c2[nH]1)COC3)[C@@H](C)c1ncc(C2CC2)cc1F [Example 121, (S)-5-amino-N-(1-(5-cyclopropyl-3-fluoropyridin-2-yl)ethyl)-N-ethyl-6,8-dihydro-1H-furo[3,4-d]pyrrolo[3,2-b]pyridine-2-carboxamide] | 586 nM | > 10000 nM |
| C[C@H]1OCc2c1c(N)nc1cc(C(=O)N(C)[C@@H]3COC4(CC4)c4cc(C(F)(F)F)ccc43)[nH]c21 [Example 165, (R)-5-amino-N,6-dimethyl-N—((S)-7′-(trifluoromethyl)spiro[cyclopropane-1,1′-isochroman]-4′-yl)-6,8-dihydro-1H-furo[3,4-d]pyrrolo[3,2-b]pyridine-2-carboxamide] | 17 nM | 2570 nM |
| C[C@@H]1OC[C@@H](N(C)C(=O)c2cc3nc(N)c4c(c3[nH]2)COC4)c2ccc(Br)cc21 [Example 80, 5-amino-N-((1S,4S)-7-bromo-1-methylisochroman-4-yl)-N-methyl-6,8-dihydro-1H-furo[3,4-d]pyrrolo[3,2-b]pyridine-2-carboxamide] | 351 nM | > 10000 nM |
| CN(C(=O)c1cc2nc(N)c3c(c2[nH]1)COC3)[C@@H]1COC2(CC2)c2cc(C(F)(F)F)ccc21 [Example 91, (S)-5-amino-N-methyl-N-(7′-(trifluoromethyl)spiro[cyclopropane-1,1′-isochroman]-4′-yl)-6,8-dihydro-1H-furo[3,4-d]pyrrolo[3,2-b]pyridine-2-carboxamide] | 32 nM | 3880 nM |
| C[C@@H](c1ncc(C(F)(F)F)cc1F)N(C(=O)c1cc2nc(N)c3c(c2[nH]1)COC3)C1CCC1 [Example 156, (S)-5-amino-N-cyclobutyl-N-(1-(3-fluoro-5-(trifluoromethyl)pyridin-2-yl)ethyl)-6,8-dihydro-1H-furo[3,4-d]pyrrolo[3,2-b]pyridine-2-carboxamide] | 523 nM | > 10000 nM |
| CCC(CC)N(Cc1c(F)cc(C2CC2)cc1F)C(=O)c1cc2nc(N)c3c(c2[nH]1)COC3 [Example 105, 5-amino-N-(4-cyclopropyl-2,6-difluorobenzyl)-N-(pentan-3-yl)-6,8-dihydro-1H-furo[3,4-d]pyrrolo[3,2-b]pyridine-2-carboxamide] | 13 nM | 930 nM |
| C[C@H](c1ccc(C(F)(F)F)cc1F)N(C)C(=O)c1cc2nc(N)c3c(c2[nH]1)COC3 [Example 145, (R)-5-amino-N-(1-(2-fluoro-4-(trifluoromethyl)phenyl)ethyl)-N-methyl-6,8-dihydro-1H-furo[3,4-d]pyrrolo[3,2-b]pyridine-2-carboxamide] | 26 nM | 3430 nM |
| CCN(C(=O)c1cc2nc(N)c3c(c2[nH]1)CO[C@@H]3C)[C@H](C)c1ccc(C2CC2)cc1F [Example 175, (R)-5-amino-N—((R)-1-(4-cyclopropyl-2-fluorophenyl)ethyl)-N-ethyl-6-methyl-6,8-dihydro-1H-furo[3,4-d]pyrrolo[3,2-b]pyridine-2-carboxamide] | 14 nM | 704 nM |
| CCN(C(=O)c1cc2nc(N)c3c(c2[nH]1)CO[C@@H]3C)[C@@H]1COC2(CC2)c2cc(C(F)(F)F)ccc21 [Example 166, (R)-5-amino-N-ethyl-6-methyl-N—((S)-7′-(trifluoromethyl)spiro[cyclopropane-1,1′-isochroman]-4′-yl)-6,8-dihydro-1H-furo[3,4-d]pyrrolo[3,2-b]pyridine-2-carboxamide] | 19 nM | 2150 nM |
| C[C@H](c1ncccn1)N(Cc1ccc(C2CC2)cn1)C(=O)c1cc2nc(N)c3c(c2[nH]1)COC3 [Example 48, (R)-5-amino-N-((5-cyclopropylpyridin-2-yl)methyl)-N-(1-(pyrimidin-2-yl)ethyl)-6,8-dihydro-1H-furo[3,4-d]pyrrolo[3,2-b]pyridine-2-carboxamide] | 8.4 nM | 625 nM |
| CCN(C(=O)c1cc2nc(N)c3c(c2[nH]1)COC3)[C@H](C)c1ccc(C2CC2)cn1 [Example 112, (R)-5-amino-N-(1-(5-cyclopropylpyridin-2-yl)ethyl)-N-ethyl-6,8-dihydro-1H-furo[3,4-d]pyrrolo[3,2-b]pyridine-2-carboxamide] | 59 nM | > 10000 nM |
| C[C@H](c1ncc(C2CC2)cc1F)N(C)C(=O)c1cc2nc(N)c3c(c2[nH]1)CO[C@@H]3C [Example 142, (R)-5-amino-N—((R)-1-(5-cyclopropyl-3-fluoropyridin-2-yl)ethyl)-N,6-dimethyl-6,8-dihydro-1H-furo[3,4-d]pyrrolo[3,2-b]pyridine-2-carboxamide] | 2.6 nM | 477 nM |
| C[C@H](c1ccc(C2CC2)cc1F)N(C)C(=O)c1cc2nc(N)c3c(c2[nH]1)COC3 [Example 173, (R)-5-amino-N-(1-(4-cyclopropyl-2-fluorophenyl)ethyl)-N-methyl-6,8-dihydro-1H-furo[3,4-d]pyrrolo[3,2-b]pyridine-2-carboxamide] | 67 nM | 5920 nM |
